The values below come from patent US7863283B2, “Sulphoximine-substituted quinazoline derivatives as immuno-modulators, their preparation and use as medicaments” (Bayer Schering Pharma AG, priority 2008, dated 2011).

One experiment has as its system TNF-α. Put plainly: TLR-induced cytokine release in human PBMC: TNF-alpha (ELISA). In kind it is cell-based. The note with it: human PBMC stimulated using a TLR ligand, incubated 18 hours with test substance, supernatant ELISA. As for the experimental part:
(§1) TLR-Induced Cytokine Release in Human “Peripheral Blood Mononuclear Cells” (PBMC)
(§2) PBMCs isolated from human whole blood are stimulated using a TLR ligand. The cytokine determination is carried out by means of ELISA kits; a proliferation/cell metabolism determination is carried out using Alamar Blue.
(§3) For the cell preparation, about 200 ml of blood are treated with an anticoagulant (e.g. citrate Monovettes). Per Leucosep tube, 15 ml of Histopaque (room temperature, RT) are poured in and pressed downwards through the frit employed by brief initial centrifugation (one minute at 1000×g, RT). 20 ml of blood are added to the tubes prepared in this way and centrifuged at 800×g for 15 minutes (RT). After centrifugation, the following layered arrangement results from the top to the bottom: plasma—PBMC—Histopaque—filter disc—Histopaque—erythrocytes and granulocytes. The supernatant plasma is aspirated. The PBMC are transferred together with the underlying Histopaque to a new 50 ml tube, the contents of two Leucosep tubes always being added to one 50 ml tube. The 50 ml tubes are then filled to 50 ml with PBS. This cell suspension is centrifuged at 300×g (RT) for 10 minutes. The liquid supernatant is tipped off and the cell pellet is resuspended with a little PBS and subsequently filled to 50 ml with PBS. This washing step is repeated twice. The resulting pellet is taken up in a defined volume of medium (with additives). For the testing of the substances, PBMC are incubated for 18 hours with titrated concentrations of the test substances, e.g. in the presence or absence of TLR ligands. On the next day, the supernatants are investigated for the content of IL-12, TNF-alpha or other chemokines by means of specific ELISA. The metabolic activity of the treated cells is determined with the aid of Alamar Blue.

A further experiment deals with IL-12. The experiment can be described thus: TLR-induced cytokine release in human PBMC: IL-12 (ELISA). In kind it is cell-based. The note with it: human PBMC stimulated using a TLR ligand, incubated 18 hours with test substance, supernatant ELISA. As for the experimental part:
as §1, §2, §3
(In an ELISA, binding on a coated surface is turned into a signal by an enzyme label.)

What is called IC50 is the concentration that gives 50% inhibition. Higher therefore signals lower potency. For `CC(C)Nc1ncnc2cc(OCc3cccc(S(C)(=N)=O)c3)c(Br)cc12` (racemic) [Example 1.2, (RS)-S-[3-({[6-Bromo-4-(isopropylamino)quinazolin-7-yl]oxy}methyl)phenyl]-S-methylsulphoximide], the half-maximal inhibitory concentration (IC50) came out at 2100 nM in the experiment with TNF-α and 4.1 µM with IL-12.
In the same order, the values of `CC(C)Nc1ncnc2cc(OCc3ccc(S(C)(=N)=O)cc3)c(Br)cc12` (racemic) [Example 2.8, (RS)-S-[4-({[6-Bromo-4-(isopropylamino)quinazolin-7-yl]oxy}methyl)phenyl]-S-methylsulphoximide] are 4000 nM and 15 µM.
In the same order, the values of `CCS(=N)(=O)c1cccc(COc2cc3ncnc(NC(C)C)c3cc2OC)c1` (racemic) [Example 2.10, (RS)-S-Ethyl-S-[3-({[4-(isopropylamino)-6-methoxyquinazolin-7-yl]oxy}-methyl)phenyl]sulphoximide] are 200 nM and 0.4 µM.
In the same order, the values of `COc1cc2c(NC(C)C)ncnc2cc1OCCCS(C)(=N)=O` (racemic) [Example 3.4, (RS)-S-(4-{[4-(Isopropylamino)-6-methoxyquinazolin-7-yl]oxy}propyl)-S-methyl-sulphoximide] are 10000 nM and 15 µM.
Consider `CC(C)Nc1ncnc2cc(OCc3cncc(S(C)(=N)=O)c3)c(Br)cc12` (racemic) [Example 3.7, (RS)-S-[5-({[6-Bromo-4-(isopropylamino)quinazolin-7-yl]oxy}methyl)pyridin-3-yl]-S-methylsulphoximide], for which the IC50 in the experiment with TNF-α amounted to 1000 nM; in the experiment on IL-12 it was 4 µM.
